Here are results for eight compounds from BindingDB's records for doi:10.1021/jm7012858 (Wyeth Research, 2008).

Molecules are shown by their SMILES.

The first experiment deals with Phosphatidylinositol 3-kinase regulatory subunit alpha/4,5-bisphosphate 3-kinase catalytic subunit alpha isoform (Homo sapiens, UniProt P42336). Description: PI3K Inhibition Assay.
Sequence of Phosphatidylinositol 3-kinase regulatory subunit alpha/4,5-bisphosphate 3-kinase catalytic subunit alpha isoform (P27986 whole entry, canonical isoform): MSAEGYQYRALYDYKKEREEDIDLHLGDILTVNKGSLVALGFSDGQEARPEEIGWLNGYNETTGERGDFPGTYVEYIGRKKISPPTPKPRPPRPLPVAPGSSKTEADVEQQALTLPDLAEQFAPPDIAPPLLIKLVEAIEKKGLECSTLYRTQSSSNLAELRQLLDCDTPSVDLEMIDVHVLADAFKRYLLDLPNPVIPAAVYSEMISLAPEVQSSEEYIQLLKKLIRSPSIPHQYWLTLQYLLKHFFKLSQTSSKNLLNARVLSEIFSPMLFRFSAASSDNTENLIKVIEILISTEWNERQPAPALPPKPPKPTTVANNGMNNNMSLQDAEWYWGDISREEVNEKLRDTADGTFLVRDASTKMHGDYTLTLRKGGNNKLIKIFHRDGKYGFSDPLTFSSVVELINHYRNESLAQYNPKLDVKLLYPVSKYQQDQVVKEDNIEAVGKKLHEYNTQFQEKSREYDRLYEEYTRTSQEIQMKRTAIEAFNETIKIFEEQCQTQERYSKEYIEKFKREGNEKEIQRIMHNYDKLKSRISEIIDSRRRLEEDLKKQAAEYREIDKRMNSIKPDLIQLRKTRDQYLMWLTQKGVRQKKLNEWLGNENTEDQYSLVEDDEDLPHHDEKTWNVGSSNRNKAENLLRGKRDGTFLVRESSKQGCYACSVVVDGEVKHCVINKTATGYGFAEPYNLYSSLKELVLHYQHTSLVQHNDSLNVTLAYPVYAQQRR
Sequence of Phosphatidylinositol 3-kinase regulatory subunit alpha/4,5-bisphosphate 3-kinase catalytic subunit alpha isoform (P42336 whole entry, canonical isoform): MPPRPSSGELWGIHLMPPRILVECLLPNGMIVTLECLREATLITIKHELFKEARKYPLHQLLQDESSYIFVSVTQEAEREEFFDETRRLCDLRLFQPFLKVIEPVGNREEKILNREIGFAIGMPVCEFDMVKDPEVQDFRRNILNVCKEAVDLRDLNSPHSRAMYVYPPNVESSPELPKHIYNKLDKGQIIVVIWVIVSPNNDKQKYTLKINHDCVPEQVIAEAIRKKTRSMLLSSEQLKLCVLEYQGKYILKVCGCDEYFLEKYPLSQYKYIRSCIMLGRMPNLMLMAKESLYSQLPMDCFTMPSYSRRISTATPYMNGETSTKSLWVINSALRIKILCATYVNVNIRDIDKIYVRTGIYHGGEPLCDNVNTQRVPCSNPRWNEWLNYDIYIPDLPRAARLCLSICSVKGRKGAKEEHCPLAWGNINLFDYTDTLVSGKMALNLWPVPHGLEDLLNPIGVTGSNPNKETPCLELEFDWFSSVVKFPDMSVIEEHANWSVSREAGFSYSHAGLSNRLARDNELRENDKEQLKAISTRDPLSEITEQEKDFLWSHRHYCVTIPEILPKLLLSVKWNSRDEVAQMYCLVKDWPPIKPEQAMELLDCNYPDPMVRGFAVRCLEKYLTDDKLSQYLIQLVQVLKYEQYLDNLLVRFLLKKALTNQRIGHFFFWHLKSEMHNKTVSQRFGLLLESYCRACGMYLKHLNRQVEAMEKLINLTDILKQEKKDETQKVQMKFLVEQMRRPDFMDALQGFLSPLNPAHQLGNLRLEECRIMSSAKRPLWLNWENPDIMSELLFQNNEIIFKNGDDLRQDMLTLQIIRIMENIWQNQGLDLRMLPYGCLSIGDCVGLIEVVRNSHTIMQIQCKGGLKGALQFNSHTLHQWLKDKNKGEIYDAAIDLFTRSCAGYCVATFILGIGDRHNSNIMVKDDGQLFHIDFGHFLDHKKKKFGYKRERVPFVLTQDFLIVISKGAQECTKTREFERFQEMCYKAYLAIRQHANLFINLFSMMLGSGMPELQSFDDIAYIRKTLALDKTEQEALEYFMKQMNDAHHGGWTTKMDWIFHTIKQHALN
Settings: not given
The procedure: Inhibition of PI3K enzyme activity is measured in a microtiter plate-based fluorescence polarization (FP) assay.
Compound `COC[C@H]1OC(=O)C(=CN2CCN(C)CC2)C2C(=O)C(=O)C3=C([C@H](OC(C)=O)C[C@@]4(C)C3CC[C@@H]4O)[C@]21C` (stereo partly drawn) [(2R,3S,6E,14S,15S,17R)-8,14-dihydroxy-3-(methoxymethyl)-2,15-dimethyl-6-[(4-methylpiperazin-1-yl)methylidene]-5,9-dioxo-4-oxatetracyclo[8.7.0.0^{2,7}.0^{11,15}]heptadeca-1(10),7-dien-17-yl acetate] came in with an IC50 of 90 nM. The same measure, in the same setting: next, `COC[C@H]1OC(=O)C(=CN(C)N2CCC(C)C2)C2C(=O)C(=O)C3=C([C@H](OC(C)=O)C[C@@]4(C)C3CC[C@@H]4O)[C@]21C` (stereo partly drawn) [(2R,3S,6E,14S,15S,17R)-8,14-dihydroxy-3-(methoxymethyl)-2,15-dimethyl-6-{[methyl(3-methylpyrrolidin-1-yl)amino]methylidene}-5,9-dioxo-4-oxatetracyclo[8.7.0.0^{2,7}.0^{11,15}]heptadeca-1(10),7-dien-17-yl acetate]: 127 nM. The same measure, in the same setting: next, `COC[C@H]1OC(=O)C(=CN2CCN(CCCN3CCOCC3)CC2)C2C(=O)C(=O)C3=C([C@H](OC(C)=O)C[C@@]4(C)C3CC[C@@H]4O)[C@]21C` (stereo partly drawn) [(2R,3S,6E,14S,15S,17R)-8,14-dihydroxy-3-(methoxymethyl)-2,15-dimethyl-6-({4-[3-(morpholin-4-yl)propyl]piperazin-1-yl}methylidene)-5,9-dioxo-4-oxatetracyclo[8.7.0.0^{2,7}.0^{11,15}]heptadeca-1(10),7-dien-17-yl acetate]: 45 nM; `COC[C@H]1OC(=O)C(=CN(C)CCCN2CCN(c3ccc(OC)cc3)CC2)C2C(=O)C(=O)C3=C([C@H](OC(C)=O)C[C@@]4(C)C3CC[C@@H]4O)[C@]21C` (stereo partly drawn) [(2R,3S,6E,14S,15S,17R)-8,14-dihydroxy-3-(methoxymethyl)-6-[({3-[4-(4-methoxyphenyl)piperazin-1-yl]propyl}(methyl)amino)methylidene]-2,15-dimethyl-5,9-dioxo-4-oxatetracyclo[8.7.0.0^{2,7}.0^{11,15}]heptadeca-1(10),7-dien-17-yl acetate]: 15 nM.

The same experiment, now with this note: pH 7.5; 22 °C.
On to `COC[C@H]1OC(=O)C(=CN(CCO)C(C)(C)C)C2C(=O)C(=O)C3=C([C@H](OC(C)=O)C[C@@]4(C)C3CC[C@@H]4O)[C@]21C` (stereo partly drawn) [(2R,3S,6Z,14S,15S,17R)-6-{[tert-butyl(2-hydroxyethyl)amino]methylidene}-8,14-dihydroxy-3-(methoxymethyl)-2,15-dimethyl-5,9-dioxo-4-oxatetracyclo[8.7.0.0^{2,7}.0^{11,15}]heptadeca-1(10),7-dien-17-yl acetate], for which the IC50 worked out at 1110 nM.

Compound `COC[C@H]1OC(=O)c2coc3c2[C@@]1(C)C1=C(C3=O)C2CC[C@H](O)[C@@]2(C)C[C@H]1OC(C)=O` (stereo partly drawn) [(1R,3R,5S,6S,18S)-6-hydroxy-18-(methoxymethyl)-1,5-dimethyl-11,16-dioxo-13,17-dioxapentacyclo[10.6.1.0^{2,10}.0^{5,9}.0^{15,19}]nonadeca-2(10),12(19),14-trien-3-yl acetate] gave a half-maximal inhibitory concentration (IC50) of 2.7 nM. As to `COC[C@H]1OC(=O)C(=CN(C)CCCN(C)C)C2C(=O)C(=O)C3=C([C@H](O)C[C@@]4(C)C3CC[C@@H]4O)[C@]21C` (stereo partly drawn) [(2R,3S,6Z,14S,15S,17R)-6-({[3-(dimethylamino)propyl](methyl)amino}methylidene)-8,14,17-trihydroxy-3-(methoxymethyl)-2,15-dimethyl-4-oxatetracyclo[8.7.0.0^{2,7}.0^{11,15}]heptadeca-1(10),7-diene-5,9-dione], the IC50 was 638 nM.

For the compound `COC[C@H]1OC(=O)C(=CNCCCN(C)C)C2C(=O)C(=O)C3=C([C@H](OC(C)=O)C[C@@]4(C)C3CC[C@@H]4O)[C@]21C` (stereo partly drawn) [(2R,3S,6Z,14S,15S,17R)-6-({[3-(dimethylamino)propyl]amino}methylidene)-8,14-dihydroxy-3-(methoxymethyl)-2,15-dimethyl-5,9-dioxo-4-oxatetracyclo[8.7.0.0^{2,7}.0^{11,15}]heptadeca-1(10),7-dien-17-yl acetate], the IC50 is over 10000 nM.
